Patent US12258354B2, “AhR modulators” (IDEAYA BIOSCIENCES, INC., priority 2018, dated 2025)

biological target: T1, hAhR (Homo sapiens, UniProt P35869); experiment: DRE-luciferase transcriptional reporter assay in HEPG2 DRE-Luc cells, TCDD-induced (antagonist mode); assay type: cell-based; settings: relative IC50, 3 nM TCDD, 24-hour incubation, firefly luciferase readout
T1 construct: Stably integrated DRE-luciferase cell lines were generated by transducing the both cell lines with Cignal XRE luciferase reporter; endogenous in cells; host or cells: HEPG2 DRE-Luc cells (only the XRE luciferase reporter was transduced)
T1 sequence (P35869 11-848): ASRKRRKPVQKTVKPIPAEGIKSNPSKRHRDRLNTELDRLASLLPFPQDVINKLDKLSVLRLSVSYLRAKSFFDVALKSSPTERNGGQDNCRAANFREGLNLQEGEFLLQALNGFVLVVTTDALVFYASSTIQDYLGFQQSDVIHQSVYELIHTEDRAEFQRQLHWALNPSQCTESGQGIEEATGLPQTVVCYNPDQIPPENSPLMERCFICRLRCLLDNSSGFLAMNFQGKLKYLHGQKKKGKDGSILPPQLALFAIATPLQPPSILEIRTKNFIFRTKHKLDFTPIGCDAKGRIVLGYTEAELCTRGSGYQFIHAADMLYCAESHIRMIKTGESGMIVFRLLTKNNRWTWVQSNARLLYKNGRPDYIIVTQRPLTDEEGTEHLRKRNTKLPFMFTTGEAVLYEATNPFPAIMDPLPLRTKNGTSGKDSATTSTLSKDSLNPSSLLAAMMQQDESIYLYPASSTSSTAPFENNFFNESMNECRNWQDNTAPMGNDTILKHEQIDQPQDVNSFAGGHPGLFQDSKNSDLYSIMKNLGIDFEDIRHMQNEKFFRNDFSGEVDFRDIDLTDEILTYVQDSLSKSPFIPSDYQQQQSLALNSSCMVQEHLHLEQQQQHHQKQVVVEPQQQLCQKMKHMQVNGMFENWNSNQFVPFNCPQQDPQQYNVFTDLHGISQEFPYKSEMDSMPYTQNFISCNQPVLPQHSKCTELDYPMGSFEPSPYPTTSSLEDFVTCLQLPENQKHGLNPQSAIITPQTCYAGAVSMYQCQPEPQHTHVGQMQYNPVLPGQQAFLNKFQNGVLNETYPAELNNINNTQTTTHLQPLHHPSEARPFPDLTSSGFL
Protocol: HEPG2 and HEPA1C1C7 cells were maintained in MEM and αMEM without nucleosides supplemented with 10% heat inactivated FBS respectively. Stably integrated DRE-luciferase cell lines were generated by transducing the both cell lines with Cignal XRE luciferase reporter (Qiagen) lentiviral particles according to the manufacturer protocol. For both cell lines stably integrated reporter cell lines were selected for the presence of 2 μg/mL puromycin. Following selection of stably integrated cell line pools, clonal cell lines were isolated by limiting dilution in 96-well plates. Transcriptional assays were performed by seeding 100 μL of cells at a density of 250,000 or 100,000 cells/mL, for HEPG2 and HEPA1C1C7 DRE-Luc cells respectively, into 96-well cell culture plates in OptiMEM supplemented with 0.5% heat inactivated FBS and allowed to attach overnight. For modulator assays, the compounds were added in a semi-log dose response using a D300e Digital Dispenser (Tecan) followed normalization with vehicle (DMSO). Immediately following compound addition 10 μL of 2,3,7,8-Tetrachlorodibenzo-p-dioxin (TCDD) was added to the cells to a final concentration of 3 nM or 0.3 nM for the HEPG2 and HEPA1C1C7 DRE-Luc cells respectively. Following 24-hour incubation, the medium was removed and the cells were lysed in 25 μL of Reporter Lysis Buffer (Promega). Firefly luciferase activity was measured immediately following the addition of 50 μL Luciferase Assay Reagent (Promega). The percent maximal activity for each point was determined using the following equation: (RLUsample−RLUvehicle−TCDD)/(RLUvehicle+TCDD RLUvehicle−TCDD)*100. The relative IC50, defined as the compound concentration required to reduce the TCDD induced response between the top and bottom plateau of each individual dose response curve by half, for each compound was determined using Prism 7 (GraphPad Software).

Question: For `Cc1cc(-c2ncc3cc(C(F)(F)F)ccc3n2)ccc1N1CC(CO)n2ncc(C)c2C1=O` (centres unmarked) [Example 114, 7-(hydroxymethyl)-3-methyl-5-(2-methyl-4-(6-(trifluoromethyl)quinazolin-2-yl)phenyl)-6,7-dihydropyrazolo[1,5-a]pyrazin-4 (5H)-one], which IC50 is on record?
Answer: < 0.2 µM

Question: With `Cc1cc(-c2ncc3nc(C(F)(F)F)ccc3n2)ccc1N1CCOc2cnn(C)c2C1=O` [compound 001, 1-methyl-7-(2-methyl-4-(6-(trifluoromethyl)pyrido[3,2-d]pyrimidin-2-yl)phenyl)-6,7-dihydro-1H-pyrazolo[3,4-f][1,4]oxazepin-8 (5H)-one] as the compound, how does the IC50 read?
Answer: < 0.2 µM

Question: With `Cc1cc(-c2ncc3cc(C(F)(F)F)ccc3n2)ccc1N1CCn2ncc(C)c2C1=O` [compound 002, 3-methyl-5-(2-methyl-4-(6-(trifluoromethyl)quinazolin-2-yl)phenyl)-6,7-dihydropyrazolo[1,5-a]pyrazin-4 (5H)-one] as the compound, how does the IC50 read?
Answer: < 0.2 µM

Question: How did the IC50 turn out when `Cc1cc(N2CCn3ncc(C)c3C2=O)c(C)cc1-c1ncc2cc(C(F)(F)F)ccc2n1` [compound 003, 5-(2,5-dimethyl-4-(6-(trifluoromethyl)quinazolin-2-yl)phenyl)-3-methyl-6,7-dihydropyrazolo[1,5-a]pyrazin-4 (5H)-one] was run?
Answer: 0.2 to 0.5 µM

Question: Which IC50 does the source give for `Cc1cc(-c2ncc3nc(C(F)(F)F)ccc3n2)ccc1N1CCc2cnn(C)c2C1=O` [compound 004, 1-methyl-6-(2-methyl-4-(6-(trifluoromethyl)pyrido[3,2-d]pyrimidin-2-yl)phenyl)-1,4,5,6-tetrahydro-7H-pyrazolo[3,4-c]pyridin-7-one] here?
Answer: < 0.2 µM

Question: Which IC50 does the source give for `Cc1cc(N2CCOc3cnn(C)c3C2=O)c(C)cc1-c1ccc2nc(C(F)(F)F)cc(C)c2n1` [compound 005, 7-(2,5-dimethyl-4-(8-methyl-6-(trifluoromethyl)-1,5-naphthyridin-2-yl)phenyl)-1-methyl-6,7-dihydro-1H-pyrazolo[3,4-f][1,4]oxazepin-8 (5H)-one] here?
Answer: < 0.2 µM

Question: `Cc1cc(-c2ccc3nc(C(F)(F)F)ccc3n2)ccc1N1CCn2ncc(C)c2C1=O` [compound 006, 3-methyl-5-(2-methyl-4-(6-(trifluoromethyl)-1,5-naphthyridin-2-yl)phenyl)-6,7-dihydropyrazolo[1,5-a]pyrazin-4 (5H)-one] was tested. Which IC50 did it give?
Answer: < 0.2 µM

Question: How did the IC50 turn out when `Cc1cc(N2CCn3ncc(C)c3C2=O)c(F)cc1-c1ccc2nc(C(F)(F)F)ccc2n1` [compound 007, 5-(2-fluoro-5-methyl-4-(6-(trifluoromethyl)-1,5-naphthyridin-2-yl)phenyl)-3-methyl-6,7-dihydropyrazolo[1,5-a]pyrazin-4 (5H)-one] was run?
Answer: < 0.2 µM

Question: `Cc1cc(-c2ccc3cc(C(F)(F)F)ccc3n2)ccc1N1CCn2ncc(C)c2C1=O` [compound 008, 3-methyl-5-(2-methyl-4-(6-(trifluoromethyl)quinolin-2-yl)phenyl)-6,7-dihydropyrazolo-[1,5-a]pyrazin-4 (5H)-one] was tested. Which IC50 did it give?
Answer: < 0.2 µM

Question: Which IC50 does the source give for `Cc1cc(-c2ncc3cc(C(F)(F)F)cc(C)c3n2)ccc1N1CCn2ncc(C)c2C1=O` [compound 009, 3-methyl-5-(2-methyl-4-(8-methyl-6-(trifluoromethyl)quinazolin-2-yl)phenyl)-6,7-dihydropyrazolo[1,5-a]pyrazin-4 (5H)-one] here?
Answer: < 0.2 µM

Question: Which IC50 does the source give for `Cc1cc(N2CCc3cnn(C)c3C2=O)c(C)cc1-c1ccc2nc(C(F)(F)F)ccc2n1` [compound 010, 6-(2,5-dimethyl-4-(6-(trifluoromethyl)-1,5-naphthyridin-2-yl)phenyl)-1-methyl-1,4,5,6-tetrahydro-7H-pyrazolo[3,4-c]pyridin-7-one] here?
Answer: 1 to 10 µM

Question: With `Cc1cc(N2CCc3cnn(C)c3C2=O)c(F)cc1-c1ccc2nc(C(F)(F)F)ccc2n1` [compound 011, 6-(2-fluoro-5-methyl-4-(6-(trifluoromethyl)-1,5-naphthyridin-2-yl)phenyl)-1-methyl-1,4,5,6-tetrahydro-7H-pyrazolo[3,4-c]pyridin-7-one] as the compound, how does the IC50 read?
Answer: < 0.2 µM

Question: Which IC50 does the source give for `Cc1cc(N2CCOc3cnn(C)c3C2=O)c(F)cc1-c1ccc2nc(C(F)(F)F)ccc2n1` [compound 012, 7-(2-fluoro-5-methyl-4-(6-(trifluoromethyl)-1,5-naphthyridin-2-yl)phenyl)-1-methyl-6,7-dihydro-1H-pyrazolo[3,4-f][1,4]oxazepin-8 (5H)-one] here?
Answer: 0.5 to 1 µM

Question: For `Cc1cnn2c1C(=O)N(c1ccc(-c3ncc4cc(C(F)(F)F)ccc4n3)cc1F)CC2` [compound 013, 5-(2-fluoro-4-(6-(trifluoromethyl)quinazolin-2-yl)phenyl)-3-methyl-6,7-dihydropyrazolo[1,5-a]pyrazin-4 (5H)-one], which IC50 is on record?
Answer: < 0.2 µM

Question: With `Cc1cc(-c2ncc3cc(C(F)(F)F)ccc3n2)ccc1N1Cc2cnn(C)c2C1=O` [compound 014, 1-methyl-5-(2-methyl-4-(6-(trifluoromethyl)quinazolin-2-yl)phenyl)-4,5-dihydropyrrolo[3,4-c]pyrazol-6 (1H)-one] as the compound, how does the IC50 read?
Answer: < 0.2 µM

Question: `Cc1cc(-c2ncc3cc(C(F)(F)F)ccc3n2)ccc1N1CCc2cnn(C)c2C1=O` [compound 015, 1-methyl-6-(2-methyl-4-(6-(trifluoromethyl)quinazolin-2-yl)phenyl)-1,4,5,6-tetrahydro-7H-pyrazolo[3,4-c]pyridin-7-one] was tested. Which IC50 did it give?
Answer: < 0.2 µM

Question: For `Cc1cc(-c2ncc3nc(C(F)(F)F)ccc3n2)ccc1N1CCn2ncc(C)c2C1=O` [compound 016, 3-methyl-5-(2-methyl-4-(6-(trifluoromethyl)pyrido[3,2-d]pyrimidin-2-yl)phenyl)-6,7-dihydropyrazolo[1,5-a]pyrazin-4 (5H)-one], which IC50 is on record?
Answer: < 0.2 µM

Question: How did the IC50 turn out when `Cc1cc(-c2ccc3nc(C(F)(F)F)cc(C)c3n2)ccc1N1CCn2ncc(C)c2C1=O` [compound 017, 3-methyl-5-(2-methyl-4-(8-methyl-6-(trifluoromethyl)-1,5-naphthyridin-2-yl)phenyl)-6,7-dihydropyrazolo[1,5-a]pyrazin-4 (5H)-one] was run?
Answer: < 0.2 µM

Question: How did the IC50 turn out when `Cc1cc(N2CCn3ncc(C)c3C2=O)c(C)cc1-c1ccc2nc(C(F)(F)F)ccc2n1` [compound 018, 5-(2,5-dimethyl-4-(6-(trifluoromethyl)-1,5-naphthyridin-2-yl)phenyl)-3-methyl-6,7-dihydropyrazolo[1,5-a]pyrazin-4 (5H)-one] was run?
Answer: 0.2 to 0.5 µM

Question: `Cc1cc(N2CCn3ncc(C)c3C2=O)c(C)cc1-c1ncc2nc(C(F)(F)F)ccc2n1` [compound 019, 5-(2,5-dimethyl-4-(6-(trifluoromethyl)pyrido[3,2-d]pyrimidin-2-yl)phenyl)-3-methyl-6,7-dihydropyrazolo[1,5-a]pyrazin-4 (5H)-one] was tested. Which IC50 did it give?
Answer: < 0.2 µM

Question: With `Cc1cc(N2CCn3ncc(C)c3C2=O)c(C)cc1-c1ccc2nc(C(F)(F)F)cc(C)c2n1` [compound 020, 5-(2,5-dimethyl-4-(8-methyl-6-(trifluoromethyl)-1,5-naphthyridin-2-yl)phenyl)-3-methyl-6,7-dihydropyrazolo[1,5-a]pyrazin-4 (5H)-one] as the compound, how does the IC50 read?
Answer: < 0.2 µM

Question: How did the IC50 turn out when `Cc1cc(N2CCn3ncc(C)c3C2=O)c(F)cc1-c1ncc2nc(C(F)(F)F)ccc2n1` [compound 021, 5-(2-fluoro-5-methyl-4-(6-(trifluoromethyl)pyrido[3,2-d]pyrimidin-2-yl)phenyl)-3-methyl-6,7-dihydropyrazolo[1,5-a]pyrazin-4 (5H)-one] was run?
Answer: < 0.2 µM

Question: How did the IC50 turn out when `Cc1cc(N2CCn3ncc(C)c3C2=O)c(F)cc1-c1ccc2nc(C(F)(F)F)cc(C)c2n1` [compound 022, 5-(2-fluoro-5-methyl-4-(8-methyl-6-(trifluoromethyl)-1,5-naphthyridin-2-yl)phenyl)-3-methyl-6,7-dihydropyrazolo[1,5-a]pyrazin-4 (5H)-one] was run?
Answer: < 0.2 µM
